Test results taken from patent US8586739B2, “Heterocyclic compounds and their uses” (Amgen Inc., priority 2007, dated 2013).
pIC50: −log10 of the molar value.

Tested on: human B cells
Assay: Human B cells proliferation stimulated by anti-IgM (3H thymidine)
Type: cell-based
Details: Homo sapiens, B-cell, 72 h, purified human B cells, anti-Human IgM + CD40L-LZ
Method: Human B Cells Proliferation stimulate by anti-IgM
Isolate PBMCs from Leukopac or from human fresh blood. Isolate human B cells by using Miltenyi protocol and B cell isolation kit II.—human B cells were Purified by using autoMACS® column.
Activation of Human B Cells
Use 96 well Flat bottom plate, plate 50000/well purified B cells in B cell proffer-ation medium (DMEM+5% FCS, 10 mM Hepes, 50 μM 2-mercaptoethanol); 150 μL medium contain 250 ng/mL CD40L-LZ recombinant protein (Amgen) and 2 μg/mL anti-Human IgM antibody (Jackson ImmunoReseach Lab.#109-006-129), mixed with 50 μL B cell medium containing PI3K inhibitors and incubate 72 h at 37° C. incubator. After 72 h, pulse labeling B cells with 0.5-1 uCi/well ^3H thymidine for overnight ˜18 h, and harvest cell using TOM harvester.

Point of comparison: `OC1CCCN(c2nc3c(Cl)cccc3cc2CNc2ncnc3[nH]cnc23)C1` (stereo not shown) [1-(8-chloro-3-((9H-purin-6-ylamino)methyl)-2-quinolinyl)-3-piperidinol], pIC50 7.01. Against it:
- Fc1cccc(-c2nc3c(Cl)cccc3nc2CNc2ncnc3[nH]cnc23)c1 [N-((5-Chloro-3-(3-fluorophenyl)quinoxalin-2-yl)methyl)-9H-purin-6-amine] — within 0.2 log units, 7.14
- C[C@H](Nc1ncnc2nc[nH]c12)c1cc2cccc(F)c2nc1-c1cc(F)ccc1Cl [N-((1S)-1-(2-(2-chloro-5-fluorophenyl)-8-fluoro-3-quinolinyl)ethyl)-7H-purin-6-amine] — 0.46 log units higher, 7.47
- Fc1ccc(F)c(-c2nc3c(Cl)cccc3cc2CNc2ncnc3[nH]cnc23)c1 [N-((8-chloro-2-(2,5-difluorophenyl)-3-quinolinyl)methyl)-9H-purin-6-amine] — 0.41 log units higher, 7.42
- C[C@H](Nc1ncnc2nc[nH]c12)c1cc2cccc(F)c2nc1-c1cccnc1 [N-((1S)-1-(8-fluoro-2-(3-pyridinyl)-3-quinolinyl)ethyl)-7H-purin-6-amine] — 0.80 log units higher, 7.81
- Cc1cccnc1-c1nc2c(Cl)cccc2cc1[C@H](C)Nc1ncnc2[nH]cnc12 [N-((1S)-1-(8-chloro-2-(3-methyl-2-pyridinyl)-3-quinolinyl)ethyl)-9H-purin-6-amine] — 0.47 log units higher, 7.48
- Fc1ccc2cc(CNc3ncnc4[nH]cnc34)c(-c3ccccc3Cl)nc2c1 [N-((2-(2-chlorophenyl)-7-fluoro-3-quinolinyl)methyl)-9H-purin-6-amine] — within 0.2 log units, 7.05
- C[C@H](Oc1ncnc2[nH]ccc12)c1cc2cccc(Cl)c2nc1-c1ccccc1 [8-chloro-2-phenyl-3-((1S)-1-(7H-pyrrolo[2,3-d]pyrimidin-4-yloxy)ethyl)quinoline] — 1.51 log units higher, 8.52
- C[C@H](Nc1ncnc2[nH]cnc12)c1cc2ccccc2nc1-c1ccccn1 [N-((1S)-1-(2-(2-pyridinyl)-3-quinolinyl)ethyl)-9H-purin-6-amine] — 1.24 log units higher, 8.25
- C[C@H](Nc1ncnc2nc[nH]c12)c1cc2cccc(F)c2nc1-c1cc(F)cc(Cl)c1 [N-((1S)-1-(2-(3-chloro-5-fluorophenyl)-8-fluoro-3-quinolinyl)ethyl)-7H-purin-6-amine] — 1.08 log units higher, 8.09
- Fc1cccc(-c2cc3c(Cl)cccc3nc2CNc2ncnc3[nH]cnc23)c1 [N-((5-chloro-3-(3-fluorophenyl)-2-quinolinyl)methyl)-9H-purin-6-amine] — within 0.2 log units, 6.89
- C[C@H](Nc1ncnc2[nH]cnc12)c1cc2cccc(Cl)c2nc1-c1ccc(F)cc1F [N-((1S)-1-(8-chloro-2-(2,4-difluorophenyl)-3-quinolinyl)ethyl)-9H-purin-6-amine] — 0.84 log units higher, 7.85
- C[C@H](Nc1ncnc2nc[nH]c12)c1cc2cccc(F)c2nc1-c1cccc(F)c1 [N-((S)-1-(8-fluoro-2-(3-fluorophenyl)quinolin-3-yl)ethyl)-7H-purin-6-amine] — 1.28 log units higher, 8.29
- CCC[C@H](Nc1ncnc2[nH]cnc12)c1cc2cccc(Cl)c2nc1-c1cccc(F)c1 [N-((1S)-1-(8-chloro-2-(3-fluorophenyl)-3-quinolinyl)butyl)-9H-purin-6-amine] — 1.18 log units higher, 8.19
- Clc1cccc2cc(CNc3ncnc4[nH]cnc34)c(-c3ccns3)nc12 [N-((8-chloro-2-(5-isothiazolyl)-3-quinolinyl)methyl)-9H-purin-6-amine] — within 0.2 log units, 7.18
- Cc1cccc2nc(CNc3ncnc4ccsc34)c(-c3ccccc3Cl)nc12 [N-((3-(2-chlorophenyl)-5-methyl-2-quinoxalinyl)methyl)thieno[3,2-d]pyrimidin-4-amine] — 0.30 log units lower, 6.71
- Fc1cccc(-c2nc3c(Cl)cccc3cc2CNc2ncnc3[nH]cnc23)c1 [N-((8-chloro-2-(3-fluorophenyl)-3-quinolinyl)methyl)-9H-purin-6-amine] — 0.55 log units higher, 7.56
- Clc1cccc2cc(CNc3ncnc4[nH]cnc34)c(-c3nccs3)nc12 [N-((8-chloro-2-(1,3-thiazol-2-yl)-3-quinolinyl)methyl)-9H-purin-6-amine] — 0.33 log units lower, 6.68
- C[C@H](Nc1ncnc2[nH]cnc12)c1cc2ccc(F)cc2nc1-c1cccnc1 [N-((1S)-1-(7-fluoro-2-(3-pyridinyl)-3-quinolinyl)ethyl)-9H-purin-6-amine] — 0.90 log units higher, 7.91
- C[C@H](Nc1ncnc2[nH]cnc12)c1cc2ccc(F)cc2nc1-c1cccc(S(C)(=O)=O)c1 [N-((1S)-1-(7-fluoro-2-(3-(methylsulfonyl)phenyl)-3-quinolinyl)ethyl)-9H-purin-6-amine] — within 0.2 log units, 6.83
- CC(C)c1ncccc1-c1nc2c(Cl)cccc2cc1CNc1ncnc2[nH]cnc12 [N-((8-chloro-2-(2-(1-methylethyl)-3-pyridinyl)-3-quinolinyl)methyl)-9H-purin-6-amine] — 0.50 log units higher, 7.51
- Clc1cccc2cc(CNc3ncnc4[nH]cnc34)c(Oc3ccccc3)nc12 [N-((8-chloro-2-phenoxy-3-quinolinyl)methyl)-9H-purin-6-amine] — 0.57 log units higher, 7.58
- CCc1ncc(F)cc1-c1nc2c(Cl)cccc2cc1[C@H](C)Nc1ncnc2[nH]cnc12 [N-((1S)-1-(8-chloro-2-(2-ethyl-5-fluoro-3-pyridinyl)-3-quinolinyl)ethyl)-9H-purin-6-amine] — 1.41 log units higher, 8.42
- C[C@H](Nc1ncnc2[nH]cnc12)c1cc2cccc(F)c2nc1-c1ccccc1 [(S)—N-(1-(8-fluoro-2-phenylquinolin-3-yl)ethyl)-9H-purin-6-amine] — 1.84 log units higher, 8.85
- C[C@H](Nc1ncnc2[nH]cnc12)c1cc2cccc(-c3ccccn3)c2nc1-c1ccccn1 [N-((1S)-1-(2,8-di-2-pyridinyl-3-quinolinyl)ethyl)-9H-purin-6-amine] — within 0.2 log units, 7.17
- CS(=O)(=O)c1cccc2nc(-c3ccccc3Cl)c(CNc3ncnc4[nH]cnc34)nc12 [N-((3-(2-chlorophenyl)-8-(methylsulfonyl)-2-quinoxalinyl)methyl)-9H-purin-6-amine] — 1.39 log units lower, 5.62
- C[C@H](Nc1ncnc2nc[nH]c12)c1cc2cccc(F)c2nc1-c1cc(F)cc(F)c1 [N-((1S)-1-(2-(3,5-difluorophenyl)-8-fluoro-3-quinolinyl)ethyl)-7H-purin-6-amine] — 1.14 log units higher, 8.15
- C[C@H](Nc1ncnc2[nH]cnc12)c1cc2cccc(Cl)c2nc1-c1cc(F)ccc1Cl [N-((1S)-1-(8-chloro-2-(2-chloro-5-fluorophenyl)-3-quinolinyl)ethyl)-9H-purin-6-amine] — 0.32 log units higher, 7.33
- C[C@H](Nc1ncnc2[nH]cnc12)c1cc2cccc(Cl)c2nc1-c1ccccn1 [N-((1S)-1-(8-chloro-2-(2-pyridinyl)-3-quinolinyl)ethyl)-9H-purin-6-amine] — 1.48 log units higher, 8.49
- COc1nc(-c2nc3c(Cl)cccc3cc2[C@H](C)Nc2ncnc3[nH]cnc23)cs1 [N-((1S)-1-(8-chloro-2-(2-methoxy-1,3-thiazol-4-yl)-3-quinolinyl)ethyl)-9H-purin-6-amine] — 0.75 log units higher, 7.76
- C[C@H](Nc1ncnc2[nH]cnc12)c1cc2cccc(C#N)c2nc1-c1cccc(F)c1 [2-(3-fluorophenyl)-3-((1S)-1-(9H-purin-6-ylamino)ethyl)-8-quinolinecarbonitrile] — 1.46 log units higher, 8.47
- Cc1ncccc1-c1nc2c(Cl)cccc2cc1[C@H](C)Nc1ncnc2[nH]cnc12 [N-((1S)-1-(8-chloro-2-(2-methyl-3-pyridinyl)-3-quinolinyl)ethyl)-9H-purin-6-amine] — 1.35 log units higher, 8.36
- C[C@H](Nc1ncnc2[nH]cnc12)c1nc2cccc(Cl)c2cc1-c1cccc(F)c1 [N-((1S)-1-(5-chloro-3-(3-fluorophenyl)-2-quinolinyl)ethyl)-9H-purin-6-amine] — 1.05 log units higher, 8.06
- FC(F)(F)c1ccncc1-c1nc2c(Cl)cccc2cc1CNc1ncnc2[nH]cnc12 [N-((8-chloro-2-(4-(trifluoromethyl)-3-pyridinyl)-3-quinolinyl)methyl)-9H-purin-6-amine] — within 0.2 log units, 7.16
- C[C@H](Nc1ncnc2[nH]cnc12)c1cc2ccc(F)cc2nc1-c1cccc(F)n1 [N-((1S)-1-(7-fluoro-2-(6-fluoro-2-pyridinyl)-3-quinolinyl)ethyl)-9H-purin-6-amine] — 1.42 log units higher, 8.43
- CC(C)c1ccccc1-c1nc2c(Cl)cccc2cc1CNc1ncnc2[nH]cnc12 [N-((8-chloro-2-(2-(1-methylethyl)phenyl)-3-quinolinyl)methyl)-9H-purin-6-amine] — 0.74 log units higher, 7.75
- C[C@H](Nc1ncnc2[nH]cnc12)c1cc2ccc(F)cc2nc1-c1cc(F)cc(F)c1 [N-((1S)-1-(2-(3,5-difluorophenyl)-7-fluoro-3-quinolinyl)ethyl)-9H-purin-6-amine] — 1.28 log units higher, 8.29
- Clc1cccc2cc(CNc3ncnc4[nH]cnc34)c(-c3ccccc3-c3nn[nH]n3)nc12 [N-((8-chloro-2-(2-(2H-tetrazol-5-yl)phenyl)-3-quinolinyl)methyl)-9H-purin-6-amine] — 2.00 log units lower, 5.01
- C[C@H](Nc1ncnc2[nH]cnc12)c1cc2cccc(Cl)c2nc1-c1nccs1 [N-((1S)-1-(8-chloro-2-(1,3-thiazol-2-yl)-3-quinolinyl)ethyl)-9H-purin-6-amine] — 1.78 log units higher, 8.79
- C[C@H](Nc1ncnc2[nH]cnc12)c1cc2cccc(Cl)c2nc1-c1cccc(S(C)(=O)=O)c1 [N-((1S)-1-(8-chloro-2-(3-(methylsulfonyl)phenyl)-3-quinolinyl)ethyl)-9H-purin-6-amine] — 0.24 log units higher, 7.25
- C[C@H](Nc1ncnc2[nH]cnc12)c1cc2cccc(C#N)c2nc1-c1ccccn1 [3-((1S)-1-(9H-purin-6-ylamino)ethyl)-2-(2-pyridinyl)-8-quinolinecarbonitrile] — 0.32 log units higher, 7.33
- C[C@H](Nc1ncnc2[nH]cnc12)c1cc2cccc(Cl)c2nc1-c1cscn1 [N-((1S)-1-(8-chloro-2-(1,3-thiazol-4-yl)-3-quinolinyl)ethyl)-9H-purin-6-amine] — 2.26 log units higher, 9.27
- CC(Oc1ccc(F)cc1-c1nc2c(Cl)cccc2cc1CNc1ncnc2[nH]cnc12)c1ccccc1 (stereo not shown) [N-((8-chloro-2-(5-fluoro-2-(1-phenylethoxy)phenyl)-3-quinolinyl)methyl)-9H-purin-6-amine] — 0.76 log units lower, 6.25
